Paper PMC7317746 (Environmental and Molecular Mutagenesis, 2020)
Marks after values point to notes of the source that are not given here.

Legend:
[1] = test system: male Sprague Dawley rats; experiment: Micronucleus assay in peripheral blood erythrocytes; assay type: in vivo, rat
[2] = test system: liver cells; experiment: Comet assay, liver cells; assay type: in vivo, rat
[3] = test system: bacteria, in vitro mammalian cell and in vivo transgenic rat assays; details: ref IARC, 1990, Bergman et al., 1996; cited from earlier work
[4] = test system: peripheral blood cells; experiment: Comet assay, peripheral blood cells; assay type: in vivo, rat
[5] = test system: male Sprague Dawley rats; experiment: Pig‐a assay; assay type: in vivo, rat
[6] = 1-Month Study, 250 mg/kg/day, Day 4
[7] = 1-Month Study, 250 mg/kg/day, Day 29
[8] = 1-Month Study, 500 mg/kg/day, Day 4
[9] = 1-Month Study, 500 mg/kg/day, Day 29
[10] = 1-Month Study, 1,000 mg/kg/day, Day 29
[11] = 3-Day Study, 500 mg/kg/day, Day 4
[12] = ≤1,000 mg/kg/day, up to 29 days
[13] = 3-Day Study, 500 mg/kg/day, Day 3
[14] = 3-Day Study, 1,000 mg/kg/day, Day 3
[15] = 3-Day Study, 2,000 mg/kg/day, Day 3
[16] = 1-Month Study, 250 mg/kg/day, Day 15
[17] = 1-Month Study, 250 mg/kg/day, Day -1 (pre-treatment)
[18] = 1-Month Study, 500 mg/kg/day, Day 15
[19] = 1-Month Study, 500 mg/kg/day, Day -1 (pre-treatment)
[20] = 1-Month Study, 1,000 mg/kg/day Days 1-29, Day 57 recovery group
[21] = 1-Month Study, 1,000 mg/kg/day, Day 15

## CC(=O)Nc1ccc(O)cc1 [acetaminophen, Acetaminophen]
[1]; [6]
  %MN‐RETs mean ± SD: 0.14 ± 0.03%
  %RETs mean ± SD: 2.89 ± 1.89%
[1]; [7]
  %MN‐RETs mean ± SD: 0.15 ± 0.05%
  %RETs mean ± SD: 1.32 ± 0.25%
[1]; [8]
  %MN‐RETs mean ± SD: 0.18 ± 0.07%
  %RETs mean ± SD: 1.80 ± 1.98%
[1]; [9]
  %MN‐RETs mean ± SD: 0.22 ± 0.04^ %
  %RETs mean ± SD: 1.03 ± 0.28%
[1]; 1-Month Study, 1,000 mg/kg/day, Day 4
  %RETs mean ± SD: 0.03 ± 0.02 %
[1]; [10]
  %MN‐RETs mean ± SD: 0.59 ± 0.23^ %
  %RETs mean ± SD: 1.48 ± 1.05%
[1]; [11]
  %MN‐RETs mean ± SD: 0.12 ± 0.05%
  %RETs mean ± SD: 0.89 ± 0.68%
[1]; 3-Day Study, 1,000 mg/kg/day, Day 4
  %RETs mean ± SD: 0.08 ± 0.08 %
[1]; 3-Day Study, 1,000 mg/kg/day, Day 4, only 1 animal analyzed
  %MN‐RETs mean ± SD: 0.21 ^a %
[1]; 3-Day Study, 2,000 mg/kg/day, Day 4
  %RETs mean ± SD: 0.03 ± 0.04 %
[1]; [12]
  Micronucleus endpoint in peripheral blood RETs (conclusion): negative
[2]; [7]
  Liver % tail intensity mean ± SD: 0.20 ± 0.11%
[2]; [9]
  Liver % tail intensity mean ± SD: 0.18 ± 0.06%
[2]; [10]
  Liver % tail intensity mean ± SD: 0.34 ± 0.25 %
[2]; [13]
  Liver % tail intensity mean ± SD: 0.22 ± 0.09%
[2]; [14]
  Liver % tail intensity mean ± SD: 0.27 ± 0.10%
[2]; [15]
  Liver % tail intensity mean ± SD: 0.28 ± 0.07 %
[2]; [12]
  Comet endpoint in peripheral blood cells and liver cells (conclusion): negative
[3]
  Mutagenicity: nonmutagenic
[4]; [7]
  Blood % tail intensity mean ± SD: 0.13 ± 0.08%
[4]; [9]
  Blood % tail intensity mean ± SD: 0.19 ± 0.10%
[4]; [10]
  Blood % tail intensity mean ± SD: 0.24 ± 0.15%
[4]; [13]
  Blood % tail intensity mean ± SD: 0.31 ± 0.11%
[4]; [14]
  Blood % tail intensity mean ± SD: 0.41 ± 0.12 %
[4]; [15]
  Blood % tail intensity mean ± SD: 0.34 ± 0.07%
[4]; 3-Day Study, at 1,000 mg/kg/day, not considered biologically relevant
  Increase in % tail intensity in peripheral blood cells versus vehicle: up to 1.6 fold
[5]; [16]
  %RETs mean ± SD: 3.7 ± 0.7%
  Number of CD59‐Neg RBCs per 10^6 RBCs mean ± SD: 0.6 ± 0.4 per 10^6 RBCs
  Number of CD59‐Neg RETs per 10^6 RETs mean ± SD: 1.8 ± 2.8 per 10^6 RETs
[5]; [7]
  %RETs mean ± SD: 2.9 ± 0.4%
  Number of CD59‐Neg RBCs per 10^6 RBCs mean ± SD: 0.9 ± 0.3 per 10^6 RBCs
  Number of CD59‐Neg RETs per 10^6 RETs mean ± SD: 3.0 ± 2.2 per 10^6 RETs
[5]; [17]
  %RETs mean ± SD: 5.2 ± 0.6%
  Number of CD59‐Neg RBCs per 10^6 RBCs mean ± SD: 0.7 ± 0.8 per 10^6 RBCs
  Number of CD59‐Neg RETs per 10^6 RETs mean ± SD: 0.6 ± 0.6 per 10^6 RETs
[5]; [18]
  %RETs mean ± SD: 3.2 ± 0.5%
  Number of CD59‐Neg RBCs per 10^6 RBCs mean ± SD: 0.3 ± 0.2 per 10^6 RBCs
  Number of CD59‐Neg RETs per 10^6 RETs mean ± SD: 1.0 ± 1.0 per 10^6 RETs
[5]; [9]
  %RETs mean ± SD: 2.0 ± 0.4 %
  Number of CD59‐Neg RBCs per 10^6 RBCs mean ± SD: 0.5 ± 0.1 per 10^6 RBCs
  Number of CD59‐Neg RETs per 10^6 RETs mean ± SD: 1.7 ± 1.9 per 10^6 RETs
[5]; [19]
  %RETs mean ± SD: 5.5 ± 1.3 %
  Number of CD59‐Neg RBCs per 10^6 RBCs mean ± SD: 0.3 ± 0.1 per 10^6 RBCs
  Number of CD59‐Neg RETs per 10^6 RETs mean ± SD: 0.6 ± 0.7 per 10^6 RETs
[5]; [20]
  %RETs mean ± SD: 2.8 ± 0.6%
  Number of CD59‐Neg RBCs per 10^6 RBCs mean ± SD: 0.9 ± 0.5 per 10^6 RBCs
  Number of CD59‐Neg RETs per 10^6 RETs mean ± SD: 0.5 ± 0.4 per 10^6 RETs
[5]; [21]
  %RETs mean ± SD: 2.8 ± 1.4%
  Number of CD59‐Neg RBCs per 10^6 RBCs mean ± SD: 0.6 ± 0.4 per 10^6 RBCs
